Results as given in paper PMC7327383, “The affinity and selectivity of α‐adrenoceptor antagonists, antidepressants, and antipsychotics for the human α1A, α1B, and α1D‐adrenoceptors” (Pharmacology Research & Perspectives, 2020).
Where two headings read alike, the source gives them in different places.

Columns and labels:
[1] = biological target: T1, full-length human α1D-adrenoceptor (Homo sapiens, UniProt P25100); assay: [3H]prazosin whole-cell competition binding, CHO-α1D cells
T1 sequence (P25100 1-572): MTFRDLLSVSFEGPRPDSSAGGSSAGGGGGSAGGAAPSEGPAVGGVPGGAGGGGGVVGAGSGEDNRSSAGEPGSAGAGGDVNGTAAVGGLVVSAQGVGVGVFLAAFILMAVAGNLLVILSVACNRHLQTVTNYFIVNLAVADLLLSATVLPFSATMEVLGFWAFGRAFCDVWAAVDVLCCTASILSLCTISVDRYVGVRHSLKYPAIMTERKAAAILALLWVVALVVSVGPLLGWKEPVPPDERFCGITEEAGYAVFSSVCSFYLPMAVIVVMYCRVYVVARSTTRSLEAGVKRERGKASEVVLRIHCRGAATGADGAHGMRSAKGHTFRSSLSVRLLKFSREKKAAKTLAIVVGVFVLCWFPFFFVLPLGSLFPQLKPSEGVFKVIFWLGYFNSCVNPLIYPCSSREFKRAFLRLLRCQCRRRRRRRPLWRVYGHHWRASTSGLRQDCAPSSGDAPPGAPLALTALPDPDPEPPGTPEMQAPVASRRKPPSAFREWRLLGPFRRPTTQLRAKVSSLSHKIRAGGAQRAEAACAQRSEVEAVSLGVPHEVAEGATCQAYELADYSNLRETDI

human α1B-adrenoceptor = biological target: T2, human α1B-adrenoceptor (Homo sapiens, UniProt P35368); assay: [3H]prazosin whole-cell competition binding, CHO-α1B cells; details: for Log KD α1B (apparent): app: top concentration inhibited most but not all specific binding, curve extrapolated; for Kd: read-out: Log KD α1B (converted)
T2 construct: CHO cells stably expressing either the full‐length human α1A, α1B, or α1D‐adrenoceptor
T2 sequence (P35368 1-520): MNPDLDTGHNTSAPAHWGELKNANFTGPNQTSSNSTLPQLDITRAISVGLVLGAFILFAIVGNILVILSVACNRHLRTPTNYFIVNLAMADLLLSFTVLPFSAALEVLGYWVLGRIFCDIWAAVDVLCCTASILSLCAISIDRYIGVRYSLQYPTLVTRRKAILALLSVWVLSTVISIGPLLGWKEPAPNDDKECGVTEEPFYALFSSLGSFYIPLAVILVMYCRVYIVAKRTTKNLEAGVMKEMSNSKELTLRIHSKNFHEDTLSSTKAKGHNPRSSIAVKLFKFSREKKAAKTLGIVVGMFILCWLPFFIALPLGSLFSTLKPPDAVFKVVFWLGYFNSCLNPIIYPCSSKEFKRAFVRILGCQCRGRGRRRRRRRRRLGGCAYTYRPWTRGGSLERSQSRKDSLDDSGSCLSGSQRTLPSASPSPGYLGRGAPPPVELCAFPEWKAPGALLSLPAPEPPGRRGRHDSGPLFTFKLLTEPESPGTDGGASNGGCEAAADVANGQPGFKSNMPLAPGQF

human α1A-adrenoceptor = biological target: T3, human α1A-adrenoceptor (Homo sapiens, UniProt P35348); assay: [3H]prazosin whole-cell competition binding, CHO-α1A cells; details: for selectivity α1A vs 1D / selectivity α1A vs α1B: ratio, 1 = no selectivity for a subtype over another
T3 construct: CHO cells stably expressing either the full‐length human α1A, α1B, or α1D‐adrenoceptor
T3 sequence (P35348 1-466): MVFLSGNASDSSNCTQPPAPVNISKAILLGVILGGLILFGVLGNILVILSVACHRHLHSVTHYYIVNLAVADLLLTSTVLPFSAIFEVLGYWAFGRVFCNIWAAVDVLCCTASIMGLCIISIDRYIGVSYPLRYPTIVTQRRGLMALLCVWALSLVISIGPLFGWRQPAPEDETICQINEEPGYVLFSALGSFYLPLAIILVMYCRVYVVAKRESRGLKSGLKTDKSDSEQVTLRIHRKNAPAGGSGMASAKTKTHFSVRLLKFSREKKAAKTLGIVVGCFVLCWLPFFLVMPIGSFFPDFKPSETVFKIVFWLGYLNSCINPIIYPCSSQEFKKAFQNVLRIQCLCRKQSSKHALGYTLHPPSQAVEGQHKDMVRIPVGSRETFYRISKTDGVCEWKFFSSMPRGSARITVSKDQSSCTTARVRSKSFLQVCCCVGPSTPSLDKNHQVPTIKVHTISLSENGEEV

[2] = ratio of KD values, higher α1D affinity (site 1 KD)
[3] = ratio, 1 = no selectivity for a subtype over another
[4] = ratio of KD values, higher α1A affinity, 1.0 under vs = none
[5] = ratio of KD values, printed under α1A = higher α1A affinity, 1.0 under vs = none
[6] = single-component inhibition curve, given as log KD (negative), mean ± SE mean
[7] = low-affinity component of two-component curve, control
[8] = two-component inhibition curve, proportion of site 1
[9] = share of site 1 in the two-component inhibition curve
[10] = single-component inhibition curve, given as log KD (negative), mean ± SE mean, read-out: Log KD α1A (converted)
[11] = log KD from 3H-prazosin whole cell binding, CHO cells, mean ± s.e.mean
[12] = Log KD α1D, single-component inhibition curve, given as log KD (negative), mean ± SE mean
[13] = ratio of KD values, higher α1B affinity, 1.0 under vs = none

COc1ccc(NC(=O)N2CCc3c2ccc2ccccc32)cc1N1CCN(C)CC1 [S32212]
Log KD α1D (apparent) ([1]; app: top concentration inhibited most but not all specific binding, curve extrapolated): −5.69 ± 0.13^app
Selectivity ratio α1B vs α1D [1, 2]: 5.9 fold
Log KD α1B (apparent) (human α1B-adrenoceptor): −4.92 ± 0.02^app
selectivity α1B vs α1D (human α1B-adrenoceptor; [3]): 5.9
Selectivity ratio α1A vs α1D (human α1A-adrenoceptor; [4]): 1.6 fold
Selectivity ratio α1A vs α1B (human α1A-adrenoceptor; [5]): 9.5 fold
Log KD α1A (human α1A-adrenoceptor; [6]): −5.90 ± 0.06

ClCCN(Cc1ccccc1)Cc1ccccc1 [Dibenamine]
Log KD α1D site 1 ([1]; high-affinity component of two-component curve, control, used for selectivity): −7.37 ± 0.15
Log KD α1D site 2 [1, 7]: −5.00 ± 0.14
Selectivity ratio α1B vs α1D [1, 2]: 6.3 fold
% site 1 α1D [1, 8]: -7.37 ± 0.15 -5.00 ± 0.14 47.8 ± 3.2% site 1
Log KD α1B site 1 (human α1B-adrenoceptor; high-affinity component of two-component curve, control): −6.57 ± 0.07
Log KD α1B site 2 (human α1B-adrenoceptor; [7]): −4.66 ± 0.06
selectivity α1B vs α1D (human α1B-adrenoceptor; [3]): 6.3
% site 1, α1B (human α1B-adrenoceptor; [9]): -6.57 ± 0.07 -4.66 ± 0.06 67.6 ± 2.6% site 1
% site 1, α1B (human α1B-adrenoceptor; [8]): -6.57 ± 0.07 -4.66 ± 0.06 67.6 ± 2.6% site 1
Log KD α1A site 1 (human α1A-adrenoceptor; high-affinity component of two-component curve, control (no thiosulphate)): −7.91 ± 0.06
Log KD α1A site 2 (human α1A-adrenoceptor; [7]): −5.32 ± 0.08
Selectivity ratio α1A vs α1D (human α1A-adrenoceptor; [4]): 3.5 fold
Selectivity ratio α1A vs α1B (human α1A-adrenoceptor; [5]): 22 fold
% site 1, α1A (human α1A-adrenoceptor; [9]): -7.91 ± 0.06 -5.32 ± 0.08 83.0 ± 1.8% site 1
% site 1, α1A (human α1A-adrenoceptor; [8]): -7.91 ± 0.06 -5.32 ± 0.08 83.0 ± 1.8% site 1

Cc1nc2n(c(=O)c1CCN1CCC(c3noc4cc(F)ccc34)CC1)CCCC2O (centres unmarked) [Paliperidone]
Log KD α1D site 2 [1]: −5.57 ± 0.21
Selectivity ratio α1B vs α1D [1]: 1.3 fold
Kd ([1]; Log KD α1D site 1, high-affinity component of two-component curve, control, used for selectivity): 33.9 nM
% site 1 α1D ([1]; percentage of inhibition through first component, control): 57.6 ± 4.9% site 1
% site 1 α1D [1, 8]: -7.47 ± 0.10 -5.57 ± 0.21 57.6 ± 4.9% site 1
selectivity α1B vs α1D (human α1B-adrenoceptor): 1.3
Kd (human α1B-adrenoceptor; [6]): 43.7 nM
Selectivity ratio α1A vs α1B (human α1A-adrenoceptor): 10 fold
Selectivity ratio α1A vs α1D (human α1A-adrenoceptor): 7.8 fold
Kd (human α1A-adrenoceptor; [10]): 4.37 nM

COC1(C2=NCCN2)COc2ccccc2O1 (centres unmarked) [RX 821002]
Log KD α1D [1, 11]: -5.31 ± 0.13
Log KD α1B (human α1B-adrenoceptor; [11]): -5.46 ± 0.06
selectivity α1B vs α1D (human α1B-adrenoceptor; [3]): 1.4
Log KD α1A (human α1A-adrenoceptor; [11]): -6.51 ± 0.09
selectivity α1A vs 1D (human α1A-adrenoceptor): 16
selectivity α1A vs α1B (human α1A-adrenoceptor): 11

CNCCC=C1c2ccccc2CCc2ccccc21 [Nortriptyline]
Kd [1, 12]: 1550 nM
Selectivity ratio α1B vs α1D (human α1B-adrenoceptor): 1.8 fold
Kd (human α1B-adrenoceptor; [6]): 851 nM
Selectivity ratio α1A vs α1B (human α1A-adrenoceptor): 47 fold
Selectivity ratio α1A vs α1D (human α1A-adrenoceptor): 85 fold
Kd (human α1A-adrenoceptor; Log KD α1A, single-component inhibition curve, given as log KD (negative), mean ± SE mean): 18.2 nM

O=C1NCCN1CCN1CCC(c2cn(-c3ccc(F)cc3)c3ccc(Cl)cc23)CC1 [Sertindole]
Kd [1, 12]: 117 nM
Selectivity ratio α1B vs α1D (human α1B-adrenoceptor; [13]): 22 fold
Kd (human α1B-adrenoceptor; [6]): 5.25 nM
Selectivity ratio α1A vs α1D (human α1A-adrenoceptor; [4]): 219 fold
Selectivity ratio α1A vs α1B (human α1A-adrenoceptor; [5]): 9.8 fold
Kd (human α1A-adrenoceptor; [10]): 0.537 nM

CCS(=O)(=O)N1CCC[C@@H]2CN3CCc4cc(OC)ccc4[C@@H]3C[C@@H]21 [RS79948]
Selectivity ratio α1A vs α1D [1, 2]: 2.1 fold
Selectivity ratio α1B vs α1D [1, 2]: 12 fold
Log KD α1D [1, 6]: −6.07 ± 0.11
selectivity α1B vs α1D (human α1B-adrenoceptor; [3]): 12
Log KD α1B (human α1B-adrenoceptor; [6]): −4.99 ± 0.05
Selectivity ratio α1A vs α1B (human α1A-adrenoceptor; [5]): 5.8 fold
selectivity α1A vs 1D (human α1A-adrenoceptor): 2.1
Log KD α1A (human α1A-adrenoceptor; [6]): −5.75 ± 0.05

CCC1(C2=NCCN2)Cc2ccccc2O1 (centres unmarked) [Efaroxan]
Kd [1, 12]: 10700 nM
Selectivity ratio α1B vs α1D [1, 2]: 5.0 fold
selectivity α1B vs α1D (human α1B-adrenoceptor; [3]): 5.0
Kd (human α1B-adrenoceptor; [6]): 53700 nM
Selectivity ratio α1A vs α1D (human α1A-adrenoceptor; [4]): 3.2 fold
Selectivity ratio α1A vs α1B (human α1A-adrenoceptor; [5]): 16 fold
Kd (human α1A-adrenoceptor; [10]): 3390 nM

CCn1ccnc1CC1COc2ccccc2O1 (centres unmarked) [Imiloxan]
Kd [1, 12]: 9550 nM
Selectivity ratio α1A vs α1D [1, 2]: 2.6 fold
Selectivity ratio α1B vs α1D [1, 2]: >10 fold
selectivity α1B vs α1D (human α1B-adrenoceptor; [3]): >10
Selectivity ratio α1A vs α1B (human α1A-adrenoceptor; [5]): >4.0 fold
selectivity α1A vs 1D (human α1A-adrenoceptor): 2.6
Kd (human α1A-adrenoceptor; [10]): 25100 nM

CC(C)(Cc1c[nH]c2ccc(Cl)cc12)NCCOc1ccccc1OCC1CC1.Cl [RS17053, N‐[2‐(2‐cyclopropylmethoxyphenoxy)ethyl]‐5‐chloro‐alpha, alpha‐dimethyl‐1H‐indole‐3‐ethanamine hydrochloride]
Kd [1]: 145 nM
Selectivity ratio α1B vs α1D [1, 2]: 1.7 fold
selectivity α1B vs α1D (human α1B-adrenoceptor; [3]): 1.7
Kd (human α1B-adrenoceptor; [6]): 245 nM
Selectivity ratio α1A vs α1D (human α1A-adrenoceptor; [4]): 31 fold
Selectivity ratio α1A vs α1B (human α1A-adrenoceptor; [5]): 52 fold
Kd (human α1A-adrenoceptor; [10]): 4.68 nM

N=C(CC(O)COc1ccccc1-c1ccccc1)N1CCCCC1 (centres unmarked) [AH11110A]
Log KD α1D [1, 6]: −4.98 ± 0.06
Selectivity ratio α1B vs α1D (human α1B-adrenoceptor; [13]): 4.7 fold
Log KD α1B (human α1B-adrenoceptor; [6]): −5.65 ± 0.09
Selectivity ratio α1A vs α1D (human α1A-adrenoceptor; [4]): 32 fold
Selectivity ratio α1A vs α1B (human α1A-adrenoceptor; [5]): 6.8 fold
Log KD α1A (human α1A-adrenoceptor; [6]): −6.48 ± 0.03

CNCCCC1c2ccccc2C=Cc2ccccc21 [Protriptyline]
Kd [1, 12]: 3470 nM
Selectivity ratio α1B vs α1D (human α1B-adrenoceptor; [13]): 1.3 fold
Kd (human α1B-adrenoceptor; [6]): 2690 nM
Selectivity ratio α1A vs α1D (human α1A-adrenoceptor; [4]): 16 fold
Selectivity ratio α1A vs α1B (human α1A-adrenoceptor; [5]): 13 fold
Kd (human α1A-adrenoceptor; [10]): 214 nM

O=C1Nc2ccccc2C2=NC(CN3CCN(c4ccccc4)CC3)CN12 (centres unmarked) [2-PMDQ]
% site 1 α1D [1, 9]: 57.6 ± 2.8%
% site 1 α1D [1, 8]: 57.6 ± 2.8%
Log KD α1B (human α1B-adrenoceptor; [11]): -6.95 ± 0.05
Log KD α1A (human α1A-adrenoceptor; [11]): -8.19 ± 0.09

CN1[C@H]2C[C@H](OC(=O)[C@H](CO)c3ccccc3)C[C@@H]1[C@@H](O)C2 [Anisodamine]
Log KD α1D [1, 6]: −4.21 ± 0.05
Log KD α1B (apparent) (human α1B-adrenoceptor): −3.45 ± 0.04^app
Log KD α1A (human α1A-adrenoceptor; [6]): −5.21 ± 0.03

CC(C)OC(=O)c1cc2c(OCC(O)CNC(C)(C)C)cccc2[nH]1 (centres unmarked) [SDZ 21009]
Log KD α1D [1, 11]: -5.09 ± 0.18
Log IC50 α1B (human α1B-adrenoceptor; log IC50 bound): Log IC50>-4
selectivity α1B vs α1D (human α1B-adrenoceptor; [3]): >12
Log KD α1A (human α1A-adrenoceptor; [11]): -5.24 ± 0.07
selectivity α1A vs 1D (human α1A-adrenoceptor): 1.4
selectivity α1A vs α1B (human α1A-adrenoceptor): >17
